Consider 49 molecules from patent US11780841B2, “3,6-methano-1H-pyrrolo[3,2-b]pyridine and 3,6-methano-1H-pyrrolo[3,2-c]pyridine compounds and medicaments using same” (priority 2018, dated 2023).

Assay [1] relates to recombinant rabies virus 1088 strain expressing Gaussia Luciferase (GLuc) (1088/GLuc). It counts as cell-based.
Assay [2] deals with rabies virus. The settings on record: mouse, in vivo; cited from earlier work.

Like-named read-outs stand apart in the source and are kept apart here.

As for `NC(=O)c1nc(F)c[nH]c1=O` [Compound T-705, Favipiravir], in assay [1] (read-out: anti-rabies virus activity IC50), the IC50 came to 30 µM. Besides, the “prophylactic effect on rabies virus” value in assay [2] is recorded as “significant prophylactic effect was confirmed”. Regarding `CC(C)CCN1C[C@H]2C[C@]3(C(=O)NCCC(=O)O)NC[C@H]2[C@H]1[C@H]3CCc1ccccc1` [IF-830], the IC50 in assay [1] (read-out: Anti-rabies activity) is 10 to 30 µM. Consider `CC(C)C[C@@H]1[C@@H]2[C@@H]3CN[C@@]1(C(=O)NCc1cccc4ccccc14)C[C@@H]3CN2Cc1ccccc1` [IF-837], for which the IC50 in assay [1] (read-out: Anti-rabies activity) fell in the range of 5 to 10 µM. The same measure, in the same setting: the value for `CC(C)C[C@@H]1[C@@H]2[C@@H]3CN[C@@]1(C(=O)NCc1ccc(C(F)(F)F)cc1)C[C@@H]3CN2Cc1ccccc1` [IF-838] was 10 to 30 µM; that for `CC(C)C[C@@H]1[C@@H]2[C@@H]3CN[C@@]1(C(=O)NCc1ccccc1)C[C@@H]3CN2Cc1ccc(Cl)cc1` [IF-839] was 5 to 10 µM.

Turning to `CC(C)C[C@@H]1[C@@H]2[C@@H]3CN[C@@]1(C(=O)NCc1ccccc1)C[C@@H]3CN2Cc1cccc(Cl)c1` [IF-840], the IC50 in assay [1] (read-out: Anti-rabies activity) is 5 to 10 µM. As to `COc1ccc(CN2C[C@H]3C[C@]4(C(=O)NCc5ccccc5)NC[C@H]3[C@H]2[C@H]4CC(C)C)cc1` [IF-841], in assay [1] (read-out: Anti-rabies activity), the IC50 lay in the range of 5 to 10 µM. On the same count and under the same terms, the same measure for `Cc1ccc(CN2C[C@H]3C[C@]4(C(=O)NCc5ccccc5)NC[C@H]3[C@H]2[C@H]4CC(C)C)cc1` [IF-842]: under 5 µM. As to `CC(C)CCNC(=O)[C@@]12C[C@@H]3CN(CC(C)C)[C@@H]([C@@H]3CN1)[C@H]2Cc1ccccc1` [IF-845], the IC50 in assay [1] (read-out: Anti-rabies activity) is 10 to 30 µM. For the molecule `CC(C)C[C@@H]1[C@@H]2[C@@H]3CN[C@@]1(C(=O)NCc1ccc(Cl)cc1)C[C@@H]3CN2CC(C)C` [IF-846], the IC50 in assay [1] (read-out: Anti-rabies activity) is 10 to 30 µM. The same measure, in the same setting: the value for `CC(C)C[C@@H]1[C@@H]2[C@@H]3CN[C@@]1(C(=O)NCc1ccccc1)C[C@@H]3CN2Cc1ccc(N(C)C)cc1` [IF-848] was 5 to 10 µM. As to `CC(C)C[C@@H]1[C@@H]2[C@@H]3CN[C@@]1(C(=O)NCc1ccccc1)C[C@@H]3CN2Cc1ccc(C(C)(C)C)cc1` [IF-849], the IC50 in assay [1] (read-out: Anti-rabies activity) fell in the range of 5 to 10 µM. As for `CC(C)CC[C@@H]1[C@@H]2[C@@H]3CN[C@@]1(C(=O)NCc1ccccc1)C[C@@H]3CN2CC(C)C` [IF-850], the IC50 in assay [1] (read-out: Anti-rabies activity) lay in the range of 5 to 10 µM. Turning to `CC(C)CCN1C[C@H]2C[C@]3(C(=O)NCc4ccccc4)NC[C@H]2[C@H]1[C@H]3CC(C)C` [IF-851], the IC50 in assay [1] (read-out: Anti-rabies activity) is 10 to 30 µM.

Regarding `CCOc1ccc(CN2C[C@H]3C[C@]4(C(=O)NCc5ccccc5)NC[C@H]3[C@H]2[C@H]4CC(C)C)cc1` [IF-853], in assay [1] (read-out: Anti-rabies activity), the IC50 lay within 5 to 10 µM. Take `CC(C)C[C@@H]1[C@@H]2[C@@H]3CN[C@@]1(C(=O)NCc1ccc4ccccc4c1)C[C@@H]3CN2Cc1ccccc1` [IF-854]: the IC50 in assay [1] (read-out: Anti-rabies activity) was in the range of 5 to 10 µM. Still for that read-out and setting: the value for `CCN1C[C@@H]2[C@H]3CN(Cc4ccc(C)cc4)[C@@H]2[C@@H](CC(C)C)[C@]1(C(=O)NCc1ccccc1)C3` [IF-855] was 5 to 10 µM; that for `Cc1ccc(CN2C[C@H]3C[C@@]4(C(=O)NCc5ccccc5)[C@H](CC(C)C)[C@@H]2[C@@H]3CN4CC(C)C)cc1` [IF-856] was under 5 µM; that for `Cc1ccc(CN2C[C@H]3C[C@@]4(C(=O)NCc5ccccc5)[C@H](CC(C)C)[C@@H]2[C@@H]3CN4C(=O)Cc2ccccc2)cc1` [IF-859] was 5 to 10 µM. The same measure, in the same setting: the same measure for `COC(=O)N1C[C@@H]2[C@H]3CN(Cc4ccc(C)cc4)[C@@H]2[C@@H](CC(C)C)[C@]1(C(=O)NCc1ccccc1)C3` [IF-860]: 10 to 30 µM; for `Cc1ccc(CN2C[C@H]3C[C@@]4(C(=O)NCc5ccccc5)[C@H](CC(C)C)[C@@H]2[C@@H]3CN4C(=O)OCC(C)C)cc1` [IF-861]: 5 to 10 µM; for `Cc1ccc(CN2C[C@H]3C[C@@]4(C(=O)NCc5ccccc5)[C@H](CC(C)C)[C@@H]2[C@@H]3CN4C(=O)OCc2ccccc2)cc1` [IF-862]: 5 to 10 µM. Still for that read-out and setting: the same measure for `Cc1ccc(CN2C[C@H]3C[C@@]4(C(=O)NCc5ccccc5)[C@H](CC(C)C)[C@@H]2[C@@H]3CN4C(=O)NCc2ccccc2)cc1` [IF-864]: 10 to 30 µM; for `CC(C)C[C@@H]1[C@@H]2[C@@H]3CN[C@@]1(C(=O)NCc1cccc(O)c1)C[C@@H]3CN2Cc1ccc(N(C)C)cc1` [IF-866]: 10 to 30 µM; for `CC(C)C[C@@H]1[C@@H]2[C@@H]3CN[C@@]1(C(=O)NCc1ccc(O)cc1)C[C@@H]3CN2Cc1ccc(N(C)C)cc1` [IF-867]: 10 to 30 µM.

Regarding `CC(C)CC1C2C=NC3(C(=O)NCc4ccccc4)C(C2)CN(Cc2ccc(Cl)cc2)C13` (centres unmarked) [IIB-83], in assay [1] (read-out: Anti-rabies activity), the IC50 is under 5 µM. On the same count and under the same terms, the same measure for `CC(C)CC1C2C=NC3(C(=O)NCc4ccccc4)C(C2)CN(Cc2cccc(Cl)c2)C13` (centres unmarked) [IIB-84]: under 5 µM; for `COc1ccc(CN2CC3CC4C=NC3(C(=O)NCc3ccccc3)C2C4CC(C)C)cc1` (centres unmarked) [IIB-85]: 5 to 10 µM; for `Cc1ccc(CN2CC3CC4C=NC3(C(=O)NCc3ccccc3)C2C4CC(C)C)cc1` (centres unmarked) [IIB-86]: 5 to 10 µM. The same measure, in the same setting: the same measure for `CC(C)CC1C2C=NC3(C(=O)NCc4ccccc4)C(C2)CN(Cc2ccc(N(C)C)cc2)C13` (centres unmarked) [IIB-94]: 5 to 10 µM; for `CC(C)CC1C2C=NC3(C(=O)NCc4ccccc4)C(C2)CN(Cc2ccc(C(C)(C)C)cc2)C13` (centres unmarked) [IIB-95]: 5 to 10 µM; for `CC(C)CC1C2C=NC3(C(=O)NCc4ccccc4)C(C2)CN(Cc2ccc(OC(F)(F)F)cc2)C13` (centres unmarked) [IIB-96]: 5 to 10 µM. Same read-out and setting: the same measure for `CCOc1ccc(CN2CC3CC4C=NC3(C(=O)NCc3ccccc3)C2C4CC(C)C)cc1` (centres unmarked) [IIB-97]: 10 to 30 µM. For `CC(C)CCC1C2C=NC3(C(=O)NCc4ccccc4)C(C2)CN(Cc2ccc(O)cc2)C13` (centres unmarked) [IIB-101], the IC50 in assay [1] (read-out: Anti-rabies activity) fell in the range of 5 to 10 µM.

Turning to `CC(C)CC1C2C=NC3(C(=O)NCc4ccc5ccccc5c4)C(C2)CN(Cc2ccccc2)C13` (centres unmarked) [IIB-102], in assay [1] (read-out: Anti-rabies activity), the IC50 was under 5 µM.

`CC(C)CCN1CC2CC3C=NC2(C(=O)NCc2ccc(Cl)cc2)C1C3CC(C)C` (centres unmarked) [IIB-103]: the IC50 in assay [1] (read-out: Anti-rabies activity) lay within 5 to 10 µM. Same read-out and setting: the value for `CC(C)CCN1CC2CC3C=NC2(C(=O)NCc2ccc(F)cc2)C1C3CC(C)C` (centres unmarked) [IIB-104] was 5 to 10 µM; that for `CC(C)CC1C2C3C=NC1(C(=O)NCc1ccccc1)CC3CN2Cc1ccc(Cl)cc1` (centres unmarked) [IIF-83] was under 5 µM; that for `CC(C)CC1C2C3C=NC1(C(=O)NCc1ccccc1)CC3CN2Cc1cccc(Cl)c1` (centres unmarked) [IIF-84] was 5 to 10 µM. Consider `COc1ccc(CN2CC3CC4(C(=O)NCc5ccccc5)N=CC3C2C4CC(C)C)cc1` (centres unmarked) [IIF-85], for which the IC50 in assay [1] (read-out: Anti-rabies activity) was in the range of 5 to 10 µM.

Turning to `Cc1ccc(CN2CC3CC4(C(=O)NCc5ccccc5)N=CC3C2C4CC(C)C)cc1` (centres unmarked) [IIF-86], the IC50 in assay [1] (read-out: Anti-rabies activity) is under 5 µM. Same read-out and setting: the same measure for `CC(C)CC1C2C3C=NC1(C(=O)NCc1ccccc1)CC3CN2Cc1ccc(N(C)C)cc1` (centres unmarked) [IIF-94]: 5 to 10 µM; for `CC(C)CC1C2C3C=NC1(C(=O)NCc1ccccc1)CC3CN2Cc1ccc(C(C)(C)C)cc1` (centres unmarked) [IIF-95]: under 5 µM; for `CC(C)CC1C2C3C=NC1(C(=O)NCc1ccccc1)CC3CN2Cc1ccc(OC(F)(F)F)cc1` (centres unmarked) [IIF-96]: 5 to 10 µM.

As to `CCOc1ccc(CN2CC3CC4(C(=O)NCc5ccccc5)N=CC3C2C4CC(C)C)cc1` (centres unmarked) [IIF-97], in assay [1] (read-out: Anti-rabies activity), the IC50 was 10 to 30 µM.

For `CC(C)CCC1C2C3C=NC1(C(=O)NCc1ccccc1)CC3CN2Cc1ccc(O)cc1` (centres unmarked) [IIF-101], in assay [1] (read-out: Anti-rabies activity), the IC50 fell in the range of 5 to 10 µM. On the same count and under the same terms, the value for `CC(C)CC1C2C3C=NC1(C(=O)NCc1ccc4ccccc4c1)CC3CN2Cc1ccccc1` (centres unmarked) [IIF-102] was under 5 µM; that for `CC(C)CCN1CC2CC3(C(=O)NCc4ccc(Cl)cc4)N=CC2C1C3CC(C)C` (centres unmarked) [IIF-103] was 5 to 10 µM.

As for `CC(C)CCN1CC2CC3(C(=O)NCc4ccc(F)cc4)N=CC2C1C3CC(C)C` (centres unmarked) [IIF-104], in assay [1] (read-out: Anti-rabies activity), the IC50 lay in the range of 5 to 10 µM.
